Where two headings read alike, the source gives them in different places.
Columns and labels:
[1] = tested on: stable HCV 1b RLuc replicon cells (dicistronic genotype 1b Con1 replicon); test: Renilla luciferase HCV replicon reporter assay, genotype 1b; assay type: cell-based; details: Hepatitis C virus, 72 h, stable 1b Con1 RLuc replicon cells, 72 hours; read-out: 1b
How it was run: (§1)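 Antiviral EC50 was determined in HCV replicon cells (stable RLuc lines for 1a H77, 1b Con1, 2a JFH-1 with NS5A L31; J6 NS5A chimera with M31) treated 72 h with compound. Renilla luciferase was then quantified.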

[2] = tested on: stable HCV 1a RLuc replicon cells (dicistronic genotype 1a H77 replicon); test: Renilla luciferase HCV replicon reporter assay, genotype 1a; assay type: cell-based; details: Hepatitis C virus, 72 h, stable 1a H77 RLuc replicon cells
How it was run: as §1

[3] = tested on: stable HCV 2a JFH-1 Rluc replicon cells (L31 present in NS5A); test: Renilla luciferase HCV replicon reporter assay, genotype 2a JFH-1; assay type: cell-based; details: Hepatitis C virus
How it was run: as §1

[4] = tested on: NS5A chimeric genotype 2a JFH-1 replicon with genotype 2a J6 strain NS5A gene (M31 present); test: Replicon assay, genotype 2a J6 NS5A chimera; assay type: cell-based, HCV; details: Hepatitis C virus
How it was run: as §1

[5] = tested on: NS5A chimeric genotype 2a JFH-1 replicon with genotype 2b MD2b-1 strain NS5A gene (M31 present); test: Replicon assay, genotype 2b NS5A chimera; assay type: cell-based, HCV; details: Hepatitis C virus
How it was run: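 Cells carrying the stable or transiently transfected (Huh-Lunet) dicistronic RLuc replicons received 3-fold serial compound dilutions from 10 mM DMSO stocks. After 72 h, cells were lysed and Renilla luciferase read. DMSO served as the no-inhibition control and ITMN-191 above 100×EC50 as the positive control; EC50 by non-linear regression.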

[6] = tested on: NS5A chimeric genotype 1b Con1 replicon with genotype 3a S52 strain NS5A gene; test: Replicon assay, genotype 3a NS5A chimera; assay type: cell-based, HCV; details: Hepatitis C virus
[7] = tested on: NS5A chimeric genotype 1b Con1 replicon with genotype 4a ED43 strain NS5A gene; test: Replicon assay, genotype 4a NS5A chimera; assay type: cell-based, HCV; details: Hepatitis C virus
[8] = read-out: 2a JFH (nM), genotype 2a JFH-1 replicon (L31 in NS5A), stable cells
[9] = read-out: 2a JFH, stable 2a JFH-1 Rluc replicon cells, L31 in NS5A, activity range
[10] = read-out: 2a J6 (t) (nM), genotype 2a J6 NS5A chimeric replicon (M31), transiently transfected (t) into Huh-Lunet cells
[11] = read-out: 2a J6 (t), transiently transfected (t) into Huh-Lunet cells, activity range
[12] = 2BS, read-out: 2b (s), stably replicating replicon cells (s), activity range
[13] = read-out: 2b (s) (nM), genotype 2b MD2b-1 NS5A chimeric replicon (M31), stably replicating replicon cells (s)
[14] = read-out: 3a (s) (nM), genotype 3a NS5A chimeric replicon, stable replicon cells (s)
[15] = read-out: 3a (s), (s), activity range
[16] = read-out: 4a (s) (nM), genotype 4a NS5A chimeric replicon, stable replicon cells (s)
[17] = read-out: 4a (s), (s), activity range

| SMILES | EC50 [1] [pM] | EC50 [2] [pM] | EC50 ([2]; activity range) [pM] | EC50 [3, 8] [nM] | EC50 [3, 9] [nM] | EC50 [4, 10] [nM] | EC50 [4, 11] [nM] | EC50 [5, 12] [nM] | EC50 [5, 13] [nM] | EC50 [6, 14] [nM] | EC50 [6, 15] [nM] | EC50 [7, 16] [nM] | EC50 [7, 17] [nM] |
| --- | --- | --- | --- | --- | --- | --- | --- | --- | --- | --- | --- | --- | --- |
| COC(=O)N[C@H](C(=O)N1C[C@@H](C)C[C@H]1c1ncc(-c2ccc3c(c2)COc2cc4c(ccc5nc([C@@H]6C[C@H](C)CN6C(=O)[C@@H](NC(=O)OC)[C@@H](C)OC)[nH]c54)cc2-3)[nH]1)[C@@H](C)OC [EZ, Methyl [(2S,3R)-3-methoxy-1-{(2S,4S)-2-[9-(2-{(2S,4S)-1-[N-(methoxycarbonyl)-O-methyl-L-threonyl]-4-methylpyrrolidin-2-yl}-1H-imidazol-5-yl)-1,11-dihydroisochromeno[4′,3′:6,7]naphtho[1,2-d]imidazol-2-yl]-4-methylpyrrolidin-1-yl}-1-oxobutan-2-yl]carbamate] | 84 | 28 | < 100 | 0.016 | < 0.1 | 0.036 | < 0.1 | 0.1 to 0.999 | 0.262 | 0.263 | 0.1 to 0.999 | 0.025 | < 0.1 |
| COC(=O)N[C@H](C(=O)N1[C@@H](C)CC[C@H]1c1nc2ccc3cc4c(cc3c2[nH]1)OCc1cc(-c2cnc([C@@H]3C[C@H](F)CN3C(=O)[C@@H](NC(=O)OC)C3CCOCC3)[nH]2)ccc1-4)C(C)C [HT] | 110 | 70 | < 100 | 0.051 | < 0.1 | 0.778 | 0.1 to 0.999 | 1 to 44 | 1.35 | 0.075 | < 0.1 | 0.03 | < 0.1 |
| COC(=O)N[C@H](C(=O)N1C[C@H]2C[C@H]2[C@H]1c1ncc(-c2ccc3c(c2)COc2cc4c(ccc5nc([C@@H]6CC[C@H](C)N6C(=O)[C@@H](NC(=O)OC)C(C)C)[nH]c54)cc2-3)[nH]1)C(C)C [HR] | 24 | 15 | < 100 | 0.022 | < 0.1 | 1.12 | 1 to 44 | 1 to 44 | 2.18 | 0.047 | < 0.1 | 0.015 | < 0.1 |
| [2H]C([2H])([2H])C([2H])(C([2H])([2H])[2H])[C@]([2H])(NC(=O)OC)C(=O)N1[C@@H](C)CC[C@H]1c1ncc(-c2ccc3c(c2)COc2cc4c(ccc5nc([C@@H]6CC[C@H](C)N6C(=O)[C@@]([2H])(NC(=O)OC)C([2H])(C([2H])([2H])[2H])C([2H])([2H])[2H])[nH]c54)cc2-3)[nH]1 [HB] | 12 | 12 | < 100 | 0.011 | < 0.1 | 0.155 | 0.1 to 0.999 | 0.1 to 0.999 | 0.49 | 0.038 | < 0.1 | 0.011 | < 0.1 |
| CC[C@H]1C[C@@H](c2ncc(-c3ccc4c(c3)COc3cc5c(ccc6nc([C@@H]7CC[C@H](C)N7C(=O)[C@@H](NC(=O)OC)C(C)C)[nH]c65)cc3-4)[nH]2)N(C(=O)[C@@H](NC(=O)OC)C(C)C)C1 [GW] | 15 | 17 | < 100 | 0.018 | < 0.1 | 0.771 | 0.1 to 0.999 | 1 to 44 | 2.41 | 0.127 | 0.1 to 0.999 | 0.01 | < 0.1 |
| CC[C@H](C)[C@H](NC(=O)OC)C(=O)N1C[C@@H](C)C[C@H]1c1nc2ccc3cc4c(cc3c2[nH]1)OCc1cc(-c2cnc([C@@H]3CC[C@H](C)N3C(=O)[C@@H](NC(=O)OC)C(C)C)[nH]2)ccc1-4 [GR] | 22 | 16 | < 100 | 0.025 | < 0.1 | 0.198 | 0.1 to 0.999 | 0.1 to 0.999 | 0.794 | 0.159 | 0.1 to 0.999 | 0.025 | < 0.1 |
